Assay results: publication PMC12794084, “Radiosynthesis and Preclinical Evaluation of a Novel ^11C‑Labeled Pyrazolopyrimidine Derivative for Positron Emission Tomography Imaging of Phosphodiesterase 2A” (ACS Medicinal Chemistry Letters, 2025)
Read-outs that look alike come from different tables or passages of the source. Values belong to the molecule of their own block, whether it stands above or below them.

Tests used:
[1] = target: PDE2A (Homo sapiens, UniProt O00408); settings: cited from earlier work
[2] = Dynamic PET imaging in SD rats; type: in vivo; settings: SD rat, baseline
Protocol: Dynamic PET imaging was performed using an Inveon PET scanner (Siemens). […] Images were reconstructed using a Hanning filter with a Nyquist cutoff of 0.5 cycles/pixel, with the following framing: 4 × 1 min, 8 × 2 min, and 8 × 5 min. Data analysis was performed using PMOD version 3.4.

[3] = Ex vivo whole-body biodistribution in ddY mice; parameters: species or system mouse; settings: 60 min postinjection, i.v.
Protocol: Decay-corrected radioactivity in each organ was measured using a Wizard automatic gamma counter (PerkinElmer, USA).

[4] = Ex vivo radiometabolite analysis in SD rats; settings: SD rat
From the text: Brain and plasma samples were rapidly collected and processed following previously reported procedures.

[5] = target: T1, PDE2A (Rattus norvegicus, UniProt Q01062); assay: In vitro autoradiography on SD rat brain sections; type: binding; settings: co-incubation with 1 μM blocker
T1 construct: we first conducted in vitro autoradiography studies on SD rat brain sections; from tissue; host or cells: male Sprague-Dawley rat brain sections (20 μm)
T1 sequence (Q01062 1-928): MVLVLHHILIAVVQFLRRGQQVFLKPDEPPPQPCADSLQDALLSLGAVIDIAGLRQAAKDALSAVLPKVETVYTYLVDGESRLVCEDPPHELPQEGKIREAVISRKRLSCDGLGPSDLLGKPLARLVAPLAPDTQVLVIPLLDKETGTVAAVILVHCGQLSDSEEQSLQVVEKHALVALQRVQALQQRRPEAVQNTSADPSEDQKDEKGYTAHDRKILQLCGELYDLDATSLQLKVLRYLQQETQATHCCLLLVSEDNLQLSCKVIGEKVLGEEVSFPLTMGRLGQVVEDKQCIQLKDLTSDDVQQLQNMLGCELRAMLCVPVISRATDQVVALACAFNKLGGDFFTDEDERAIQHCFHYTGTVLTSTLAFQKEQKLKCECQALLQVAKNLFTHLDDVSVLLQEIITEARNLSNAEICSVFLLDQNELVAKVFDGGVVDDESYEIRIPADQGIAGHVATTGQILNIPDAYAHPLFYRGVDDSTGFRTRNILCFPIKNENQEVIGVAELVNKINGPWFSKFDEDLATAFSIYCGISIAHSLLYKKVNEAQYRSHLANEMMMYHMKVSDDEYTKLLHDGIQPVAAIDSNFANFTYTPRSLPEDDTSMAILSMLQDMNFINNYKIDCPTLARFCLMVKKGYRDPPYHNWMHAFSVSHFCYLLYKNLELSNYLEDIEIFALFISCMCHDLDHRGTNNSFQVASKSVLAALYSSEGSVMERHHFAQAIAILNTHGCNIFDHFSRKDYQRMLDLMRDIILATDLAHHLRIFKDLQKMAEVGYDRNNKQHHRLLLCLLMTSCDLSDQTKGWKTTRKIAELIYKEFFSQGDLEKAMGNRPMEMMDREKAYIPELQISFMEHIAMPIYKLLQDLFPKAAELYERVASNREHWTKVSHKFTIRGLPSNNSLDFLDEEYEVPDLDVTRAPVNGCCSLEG
Protocol: After incubation, sections were washed three times (2 min each) with prechilled buffer and briefly rinsed in cold distilled water (10 s). The slices were then air-dried and placed on imaging screens for 60 min before being scanned using a BAS5000 system (Fujifilm).

[6] = logD by shake flask method with LC-MS/MS analysis; type: physicochemical
[7] = Unbound brain fraction; type: in vitro ADME

Chain of PDE2A (Homo sapiens, UniProt O00408) (O00408 whole entry): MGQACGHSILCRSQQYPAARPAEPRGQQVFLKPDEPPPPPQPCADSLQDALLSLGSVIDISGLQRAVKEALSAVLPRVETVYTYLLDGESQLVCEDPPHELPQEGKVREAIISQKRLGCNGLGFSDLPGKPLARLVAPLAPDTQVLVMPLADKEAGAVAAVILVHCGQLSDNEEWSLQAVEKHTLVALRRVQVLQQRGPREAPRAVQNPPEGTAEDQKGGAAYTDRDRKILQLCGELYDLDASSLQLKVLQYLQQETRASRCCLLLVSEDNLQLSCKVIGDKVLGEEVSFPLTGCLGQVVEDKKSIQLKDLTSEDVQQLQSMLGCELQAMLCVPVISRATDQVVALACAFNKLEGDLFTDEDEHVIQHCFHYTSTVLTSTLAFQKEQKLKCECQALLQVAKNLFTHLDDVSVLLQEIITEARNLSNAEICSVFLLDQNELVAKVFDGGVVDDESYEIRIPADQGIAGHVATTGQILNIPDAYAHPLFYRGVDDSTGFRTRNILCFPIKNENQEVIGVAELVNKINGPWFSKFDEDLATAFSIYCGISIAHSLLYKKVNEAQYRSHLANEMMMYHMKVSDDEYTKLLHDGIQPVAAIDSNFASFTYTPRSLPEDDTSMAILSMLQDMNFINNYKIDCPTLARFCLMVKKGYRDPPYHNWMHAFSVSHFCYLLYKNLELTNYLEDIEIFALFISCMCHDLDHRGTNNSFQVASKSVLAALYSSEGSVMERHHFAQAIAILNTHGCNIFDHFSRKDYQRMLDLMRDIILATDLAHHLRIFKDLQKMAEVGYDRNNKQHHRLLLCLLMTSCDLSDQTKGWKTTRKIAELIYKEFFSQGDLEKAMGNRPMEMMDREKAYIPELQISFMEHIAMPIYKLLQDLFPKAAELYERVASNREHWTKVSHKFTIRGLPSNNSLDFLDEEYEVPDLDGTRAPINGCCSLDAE

Structure (SMILES): COc1ccc2nnc3c(C)nc(-c4cc(OCCCC[18F])ccc4F)n3c2n1 [[^18F]TA4]
IC50 ([1]; triazine scaffold tracers, ref Schröder et al.): 7.3 nM

Structure (SMILES): Cc1nc(NC2(c3ccc(C(F)(F)F)cc3)CC2)c2cnn([11CH3])c2n1 [[^11C]1]
brain distribution in summed PET images ([2]; 3–20 min): homogeneous distribution | SUVmax (brain uptake) ([2]; at 2 min postinjection): 1.65 | brain SUV ([2]; by 20 min): below 0.5 | small intestine uptake [3]: 11 ± 1.5 % ID/g | % of unchanged form in brain ([4]; 10 min postinjection): 97% | % of unchanged form in plasma ([4]; 10 min postinjection): 54% | % of unchanged form in brain ([4]; 30 min postinjection): 86% | % of unchanged form in plasma ([4]; 30 min postinjection): 34%

Structure (SMILES): Cn1ncc(-c2nn(C)c3ncnc(N4CCC4)c23)c1-c1ccc(C(F)(F)F)cc1 [PF-05085727]
blocking effect on [11C]1 signal in autoradiography [5]: significantly reduced the radiotracer signal in PDE2A-rich regions

Structure (SMILES): Cc1nc(-c2cnn(C)c2-c2ccc(C(F)(F)F)cc2)c2c(N3CC([18F])C3)ncnn12 [[^18F]PF-05270430]
IC50 ([1]; literature PET radioligands): 0.5 nM

logD [6]: 3.88 | f u brain [7]: 7.2%
Structure (SMILES): Cc1nc(NC2(c3ccc(C(F)(F)F)cc3)CC2)c2cnn(C)c2n1 [compound 1, 1,6-Dimethyl-N-(1-(4-(trifluoromethyl)-phenyl)-cyclopropyl)-1H-pyrazolo[3,4-d]-pyrimidin-4-amine]

Structure (SMILES): COc1ccc(Cc2nn3c([C@@H](CCCc4ccccc4)[C@@H](C)O)nc(C)c3c(=O)[nH]2)cc1OC [BAY 60-7550]
blocking effect on [11C]1 signal in autoradiography [5]: significantly reduced the radiotracer signal in PDE2A-rich regions
